The text below walks through data of ChEMBL document CHEMBL4665865, “New series of isoxazole derivatives targeting EGFR-TK: Synthesis, molecular modeling and antitumor evaluation” (Bioorg Med Chem, 2020).

Test [1] has as its system HepG2. The experiment in a line: Antitumor activity against human HepG2 cells assessed as inhibition of cell viability by MTT assay. The format is functional, cell-based.
In test [2] the test system is HepG2. The test can be described thus: Induction of cell cycle arrest in human HepG2 cells assessed as cell debris at antiproliferative IC50 by PI staining based flow cytometric analysis (reference value: 1.52%). The format is functional. The note with it: time 24 hrs.
Test [3] concerns HepG2. The test can be described thus: Induction of apoptosis in human HepG2 cells assessed as necrotic cells at antiproliferative IC50 incubated for 24 hrs by annexin V FITC and propidium iodide staining based flow cytometry (reference value: 0.52 %). The format is functional. In general terms: Flow cytometry measures light scatter and fluorescence of single cells or particles in a stream.

In a further test the test system is WI-38. The test can be described thus: Cytotoxicity against human WI38 cells assessed as reduction in cell viability by MTT assay. The class given is cell-based. In general terms: Tetrazolium dyes change colour on reduction, which living cells bring about.
The test system of test [4] is MCF7. The experiment in a line: Induction of apoptosis in human MCF7 cells assessed as necrotic cells at antiproliferative IC50 incubated for 24 hrs by annexin V FITC and propidium iodide staining based flow cytometry (reference value: 1.11 %). The format is functional.
The subject of test [5] is MCF7. The experiment in a line: Antitumor activity against human MCF7 cells assessed as inhibition of cell viability by MTT assay. The format is functional, cell-based.
Test [6] relates to HepG2. The experiment in a line: Induction of apoptosis in human HepG2 cells assessed as increase in Bax protein expression by Western blot analysis relative to untreated control. The class given is functional.
Test [7] concerns HCT-116. The test can be described thus: Induction of apoptosis in human HCT-116 cells assessed as late apoptotic cells at antiproliferative IC50 incubated for 24 hrs by annexin V FITC and propidium iodide staining based flow cytometry (reference value: 0.19 %). The format is functional.
Test [8] deals with HCT-116. The experiment in a line: Induction of apoptosis in human HCT-116 cells assessed as early apoptotic cells at antiproliferative IC50 incubated for 24 hrs by annexin V FITC and propidium iodide staining based flow cytometry (reference value: 0.41 %). The class given is functional.
For test [9], the target named is Epidermal growth factor receptor (Homo sapiens, UniProt P00533). The test can be described thus: Inhibition of EGFR-TK (unknown origin) relative to control.
Chain of Epidermal growth factor receptor (P00533 whole entry): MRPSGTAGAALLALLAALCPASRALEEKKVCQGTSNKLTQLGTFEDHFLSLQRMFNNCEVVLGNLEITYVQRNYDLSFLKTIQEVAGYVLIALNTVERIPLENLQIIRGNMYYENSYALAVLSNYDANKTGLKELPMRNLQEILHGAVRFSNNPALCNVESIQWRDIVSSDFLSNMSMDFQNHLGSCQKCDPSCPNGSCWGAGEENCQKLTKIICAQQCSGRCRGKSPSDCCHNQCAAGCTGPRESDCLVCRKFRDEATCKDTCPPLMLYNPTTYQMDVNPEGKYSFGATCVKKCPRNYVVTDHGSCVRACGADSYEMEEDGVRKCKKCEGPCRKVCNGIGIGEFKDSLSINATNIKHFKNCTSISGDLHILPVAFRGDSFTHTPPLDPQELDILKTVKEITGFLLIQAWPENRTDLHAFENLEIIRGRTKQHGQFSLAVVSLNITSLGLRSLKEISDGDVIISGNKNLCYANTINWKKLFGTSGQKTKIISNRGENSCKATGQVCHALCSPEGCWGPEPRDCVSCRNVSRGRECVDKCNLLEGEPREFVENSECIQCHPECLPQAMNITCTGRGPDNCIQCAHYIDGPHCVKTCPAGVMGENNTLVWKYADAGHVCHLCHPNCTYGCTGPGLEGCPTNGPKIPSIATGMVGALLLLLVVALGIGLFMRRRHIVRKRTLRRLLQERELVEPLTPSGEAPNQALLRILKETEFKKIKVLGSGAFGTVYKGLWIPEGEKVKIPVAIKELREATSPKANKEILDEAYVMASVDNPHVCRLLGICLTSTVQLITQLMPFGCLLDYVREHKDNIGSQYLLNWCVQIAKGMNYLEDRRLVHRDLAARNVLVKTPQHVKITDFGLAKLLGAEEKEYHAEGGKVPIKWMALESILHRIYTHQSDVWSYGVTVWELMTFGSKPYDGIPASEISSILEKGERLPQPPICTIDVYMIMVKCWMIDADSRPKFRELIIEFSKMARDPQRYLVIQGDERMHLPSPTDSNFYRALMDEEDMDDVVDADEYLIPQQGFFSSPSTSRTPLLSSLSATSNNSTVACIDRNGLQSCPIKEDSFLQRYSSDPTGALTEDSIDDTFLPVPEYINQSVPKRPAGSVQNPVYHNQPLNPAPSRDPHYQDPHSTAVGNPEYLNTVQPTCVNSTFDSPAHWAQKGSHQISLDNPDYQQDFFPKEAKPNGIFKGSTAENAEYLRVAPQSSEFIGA
Test [10] deals with MCF7. The experiment in a line: Induction of cell cycle arrest in human MCF7 cells assessed as accumulation of cells at S phase at antiproliferative IC50 by PI staining based flow cytometric analysis (reference value: 32.91%). The class given is functional.

For `Cc1cc(NC2=NC(=O)/C(=C\c3c4ccccc4cc4ccccc34)S2)no1`, the IC50 (as a rule, the concentration that gives 50% inhibition) came to 6.86 µM with HepG2 [1], 38.6 µM with WI-38, 6.38 µM with MCF7 [5] and 0.054 µM in test [9]. Also, the Activity in the test with HepG2 [2] amounted to 2.18%; in the test with HepG2 [3] it was 1.77%; with MCF7 [4], 2.31%; in the test with HCT-116 [7], 15.19%; in the test with HCT-116 [8] it was 5.23%; with MCF7 [10], 26.41%. For the same compound, the “fold change (FC)” value in the test with HepG2 [6] was 4.1.
